Reference: ChEMBL document CHEMBL4043139, “Fluoro and pentafluorothio analogs of the antitumoral curcuminoid EF24 with superior antiangiogenic and vascular-disruptive effects” (Bioorg Med Chem, 2017)
The source made the active and inactive calls. The calls are words filed in the database; no cut-off is given here.

Experiments:
518A2 [1] = experiment: Cytotoxicity against human 518A2 cells after 72 hrs by MTT assay; format: functional, cell-based; conditions: for IC50: 518A2, 72 h
HT-29 [2] = experiment: Cytotoxicity against human HT-29 cells after 72 hrs by MTT assay; format: functional, cell-based; conditions: for IC50: HT-29, 72 h
HCT-116 = experiment: Cytotoxicity against human HCT116 cells after 72 hrs by MTT assay; format: functional, cell-based; conditions: for IC50: HCT-116, 72 h
DLD-1 = experiment: Cytotoxicity against human DLD1 cells after 72 hrs by MTT assay; format: functional, cell-based; conditions: for IC50: DLD-1, 72 h
PANC-1 = experiment: Cytotoxicity against human PANC1 cells after 72 hrs by MTT assay; format: functional, cell-based; conditions: for IC50: PANC-1, 72 h
[3] = (§1) Cytotoxicity against human KB-V1/Vbl cells after 72 hrs by MTT assay; format: functional, cell-based
KB-V1/Vbl = experiment: as §1; format: functional, cell-based
[4] = (§2) Cytotoxicity against human MCF7/Topo cells after 72 hrs by MTT assay; format: functional, cell-based
MCF7/Topo = experiment: as §2; format: functional, cell-based
[5] = (§3) Cytotoxicity against human U87 cells after 72 hrs by MTT assay; format: functional, cell-based, U-87MG ATCC; conditions: U-87 MG
U-87MG ATCC [6] = experiment: as §3; format: functional, cell-based
Gallus gallus [7] = experiment: Vascular disruptive activity in 6 days post fertilized chicken egg chorioallantoic/vitelline membrane at 10 nmol administered topically measured up to 24 hrs by stereo-microscopic analysis; format: functional
Gallus gallus [8] = experiment: Vascular disruptive activity in 6 days post fertilized chicken egg assessed as area covered by blood vessels at 10 nmol administered topically measured after 6 hrs by light microscopic analysis relative to control; format: functional
Gallus gallus [9] = experiment: Vascular disruptive activity in 6 days post fertilized chicken egg chorioallantoic/vitelline membrane assessed as disruption of capillary reticulation at 10 nmol administered topically measured after 6 hrs by stereo-microscopic analysis; format: functional
Gallus gallus [10] = experiment: Vascular disruptive activity in 6 days post fertilized chicken egg chorioallantoic/vitelline membrane assessed as degradation of blood vessels at 10 nmol administered topically measured after 6 hrs by stereo-microscopic analysis; format: functional
[11] = Cytotoxicity against HDFa after 72 hrs by MTT assay; format: cell-based; conditions: Homo sapiens
HT-29 [12] = experiment: Cell cycle arrest in human HT-29 cells assessed as accumulation at sub-G1 phase at 1 uM after 24 hrs by propidium iodide staining based flow cytometric analysis (reference value: 0.9 +/- 0.1%); format: functional
HT-29 [13] = experiment: Cell cycle arrest in human HT-29 cells assessed as accumulation at sub-G1 phase at 2.5 uM after 24 hrs by propidium iodide staining based flow cytometric analysis (reference value: 0.9 +/- 0.1%); format: functional
HT-29 [14] = experiment: Cell cycle arrest in human HT-29 cells assessed as accumulation at sub-G1 phase at 5 uM after 24 hrs by propidium iodide staining based flow cytometric analysis (reference value: 0.9 +/- 0.1%); format: functional
HT-29 [15] = experiment: Cell cycle arrest in human HT-29 cells assessed as accumulation at G1 phase at 1 uM after 24 hrs by propidium iodide staining based flow cytometric analysis (reference value: 68 +/- 0.9%); format: functional
HT-29 [16] = experiment: Cell cycle arrest in human HT-29 cells assessed as accumulation at G1 phase at 2.5 uM after 24 hrs by propidium iodide staining based flow cytometric analysis (reference value: 68 +/- 0.9%); format: functional
HT-29 [17] = experiment: Cell cycle arrest in human HT-29 cells assessed as accumulation at G1 phase at 5 uM after 24 hrs by propidium iodide staining based flow cytometric analysis (reference value: 68 +/- 0.9%); format: functional
HT-29 [18] = experiment: Cell cycle arrest in human HT-29 cells assessed as accumulation at S phase at 1 uM after 24 hrs by propidium iodide staining based flow cytometric analysis (reference value: 15.6 +/- 0.3%); format: functional
HT-29 [19] = experiment: Cell cycle arrest in human HT-29 cells assessed as accumulation at S phase at 2.5 uM after 24 hrs by propidium iodide staining based flow cytometric analysis (reference value: 15.6 +/- 0.3%); format: functional
HT-29 [20] = experiment: Cell cycle arrest in human HT-29 cells assessed as accumulation at S phase at 5 uM after 24 hrs by propidium iodide staining based flow cytometric analysis (reference value: 15.6 +/- 0.3%); format: functional
HT-29 [21] = experiment: Cell cycle arrest in human HT-29 cells assessed as accumulation at G2/M phase at 1 uM after 24 hrs by propidium iodide staining based flow cytometric analysis (reference value: 15.5 +/- 0.5%); format: functional
HT-29 [22] = experiment: Cell cycle arrest in human HT-29 cells assessed as accumulation at G2/M phase at 2.5 uM after 24 hrs by propidium iodide staining based flow cytometric analysis (reference value: 15.5 +/- 0.5%); format: functional
HT-29 [23] = experiment: Cell cycle arrest in human HT-29 cells assessed as accumulation at G2/M phase at 5 uM after 24 hrs by propidium iodide staining based flow cytometric analysis (reference value: 15.5 +/- 0.5%); format: functional
HT-29 [24] = experiment: Upregulation of cyclin B1 expression in human HT-29 cells at 1 to 2.5 uM after 24 hrs by Western blot analysis; format: functional, cell-based
Homo sapiens = species on record: Homo sapiens; experiment: Inhibition of NF-kappaB in human 518A2 cells assessed as reduction in p65 subunit expression at 1 to 2 uM after 24 hrs by Western blot analysis; format: cell-based
518A2 [25] = experiment: Anti-migratory activity in human 518A2 cells assessed as wound closure at 250 nM after 24 hrs by light microscopic analysis; format: functional, cell-based
518A2 [26] = experiment: Anti-migratory activity in human 518A2 cells assessed as wound closure at 250 nM after 48 hrs by light microscopic analysis (reference value: 100%); format: functional
U-87MG ATCC [27] = experiment: Anti-vasculogenic activity in human U87 cells assessed as reduction in formation of cord-like structures at 2.5 uM after 24 hrs by matrigel based light microscopic analysis; format: functional, cell-based
U-87MG ATCC [28] = experiment: Anti-vasculogenic activity in human U87 cells assessed as reduction in formation of blood-vessel like tubular structures at 2.5 uM after 24 hrs by matrigel based light microscopic analysis; format: functional, cell-based
[29] = Cytotoxicity against human U87 cells assessed as cell viability at 10 nmol after 24 hrs by MTT assay relative to control; format: cell-based, U-87MG ATCC; conditions: read-out: Activity

## O=C1/C(=C/c2ccc(S(F)(F)(F)(F)F)cc2)CCC/C1=C\c1ccc(S(F)(F)(F)(F)F)cc1
518A2 [1]
  Activity: Dose-dependent effect
  IC50: 1.8 µM
HT-29 [2]
  Activity: Dose-dependent effect
  IC50: 1.1 µM
HCT-116
  Activity: Dose-dependent effect
  IC50: 0.71 µM
DLD-1
  Activity: Dose-dependent effect
  IC50: 0.86 µM
PANC-1
  Activity: Dose-dependent effect
  IC50: 2 µM
[3]
  IC50: 1.9 µM
KB-V1/Vbl
  Activity: Dose-dependent effect
[4]
  IC50: 1.8 µM
MCF7/Topo
  Activity: Dose-dependent effect
[5]
  IC50: 3.2 µM
U-87MG ATCC [6]
  Activity: Dose-dependent effect

## COc1cc(/C=C/C(=O)CC(=O)/C=C/c2ccc(O)c(OC)c2)ccc1O
Gallus gallus [7]
  Activity: inactive
Gallus gallus [8]
  Activity: inactive

## CN1C/C(=C\c2c(F)cc(F)cc2F)C(=O)/C(=C/c2c(F)cc(F)cc2F)C1
Gallus gallus [9]
  Activity: Active
Gallus gallus [10]
  Activity: Active
518A2 [1]
  Activity: Dose-dependent effect
  IC50: > 10 µM
HT-29 [2]
  Activity: Dose-dependent effect
  IC50: > 10 µM
HCT-116
  Activity: Dose-dependent effect
  IC50: > 10 µM
DLD-1
  Activity: Dose-dependent effect
  IC50: > 10 µM
PANC-1
  Activity: Dose-dependent effect
  IC50: > 10 µM
[3]
  IC50: 0.82 µM
KB-V1/Vbl
  Activity: Dose-dependent effect
[4]
  IC50: 2.1 µM
MCF7/Topo
  Activity: Dose-dependent effect
[5]
  IC50: > 10 µM
U-87MG ATCC [6]
  Activity: Dose-dependent effect
[11]
  IC50: > 10 µM
HT-29 [12]
  Activity: 5%
HT-29 [13]
  Activity: 30.1%
HT-29 [14]
  Activity: 32.7%
HT-29 [15]
  Activity: 58.9%
HT-29 [16]
  Activity: 25.5%
HT-29 [17]
  Activity: 22.2%
HT-29 [18]
  Activity: 18.3%
HT-29 [19]
  Activity: 7.4%
HT-29 [20]
  Activity: 8.1%
HT-29 [21]
  Activity: 17.8%
HT-29 [22]
  Activity: 37%
HT-29 [23]
  Activity: 36.9%
HT-29 [24]
  Activity: Active
Homo sapiens
  inhibition: Active
518A2 [25]
  Activity: Active
518A2 [26]
  Activity: Active
Gallus gallus [8]
  Activity: 40%
U-87MG ATCC [27]
  Activity: inactive
U-87MG ATCC [28]
  Activity: inactive
[29]
  viability at 24 h, 10 nmol: > 85%
